According to the NIST ThermoML archive (doi:10.1016/j.fluid.2007.12.007):

Experiment: xn = mol fraction of the nth substance listed
Settings: 101 kPa, Liquid

NC=O [formamide] + CCC(C)O
Settings | speed of sound [m/s] | viscosity [mPa·s]
293.15 K, x1 = 0.1043 | 1264.1 | 4.14
293.15 K, x1 = 0.2043 | 1295.8 | 4.08
293.15 K, x1 = 0.3056 | 1329.1 | 4.046
293.15 K, x1 = 0.4083 | 1364.5 | 4.041
293.15 K, x1 = 0.5093 | 1401.3 | 4.026
293.15 K, x1 = 0.6063 | 1438.8 | 3.99
293.15 K, x1 = 0.7068 | 1480.1 | 3.929
293.15 K, x1 = 0.8042 | 1522.5 | 3.859
293.15 K, x1 = 0.9024 | 1568 | 3.77
298.15 K, x1 = 0.1043 | 1243.5 | 3.044
298.15 K, x1 = 0.2043 | 1274.8 | 3.064
298.15 K, x1 = 0.3056 | 1308 | 3.113
298.15 K, x1 = 0.4083 | 1343.4 | 3.19
298.15 K, x1 = 0.5093 | 1380.4 | 3.261
298.15 K, x1 = 0.6063 | 1418.1 | 3.31
298.15 K, x1 = 0.7068 | 1459.9 | 3.338
298.15 K, x1 = 0.8042 | 1503.4 | 3.351
298.15 K, x1 = 0.9024 | 1550.5 | 3.348
303.15 K, x1 = 0.1043 | 1225 | 2.516
303.15 K, x1 = 0.2043 | 1256.1 | 2.551
303.15 K, x1 = 0.3056 | 1289.2 | 2.617
303.15 K, x1 = 0.4083 | 1324.7 | 2.713
303.15 K, x1 = 0.5093 | 1361.9 | 2.8
303.15 K, x1 = 0.6063 | 1400 | 2.869
303.15 K, x1 = 0.7068 | 1442.6 | 2.918
303.15 K, x1 = 0.8042 | 1487.3 | 2.949
303.15 K, x1 = 0.9024 | 1536 | 2.966
308.15 K, x1 = 0.1043 | 1204.5 | 2.126
308.15 K, x1 = 0.2043 | 1235.7 | 2.167
308.15 K, x1 = 0.3056 | 1268.9 | 2.239
308.15 K, x1 = 0.4083 | 1304.5 | 2.339
308.15 K, x1 = 0.5093 | 1341.9 | 2.435
308.15 K, x1 = 0.6063 | 1380.6 | 2.512
308.15 K, x1 = 0.7068 | 1424.4 | 2.571
308.15 K, x1 = 0.8042 | 1470.5 | 2.611
308.15 K, x1 = 0.9024 | 1521 | 2.639
313.15 K, x1 = 0.1043 | 1185.6 | 1.802
313.15 K, x1 = 0.2043 | 1216.2 | 1.848
313.15 K, x1 = 0.3056 | 1249.3 | 1.927
313.15 K, x1 = 0.4083 | 1285.3 | 2.035
313.15 K, x1 = 0.5093 | 1323.1 | 2.138
313.15 K, x1 = 0.6063 | 1362.1 | 2.224
313.15 K, x1 = 0.7068 | 1406.8 | 2.291
313.15 K, x1 = 0.8042 | 1453.9 | 2.338
313.15 K, x1 = 0.9024 | 1506.1 | 2.375
318.15 K, x1 = 0.1043 | 1167.6 | 1.543
318.15 K, x1 = 0.2043 | 1197.6 | 1.593
318.15 K, x1 = 0.3056 | 1230.7 | 1.677
318.15 K, x1 = 0.4083 | 1266.9 | 1.791
318.15 K, x1 = 0.5093 | 1305 | 1.903
318.15 K, x1 = 0.6063 | 1344.2 | 1.998
318.15 K, x1 = 0.7068 | 1389.5 | 2.072
318.15 K, x1 = 0.8042 | 1437.6 | 2.129
318.15 K, x1 = 0.9024 | 1491.3 | 2.175

CC(O)CCO (stereo unspecified) [1,3-butanediol] + NC=O
Settings | speed of sound [m/s] | viscosity [mPa·s]
293.15 K, x2 = 0.1061 | 1539 | 99.92
293.15 K, x2 = 0.2004 | 1536.3 | 78.22
293.15 K, x2 = 0.3068 | 1537.2 | 59.74
293.15 K, x2 = 0.4026 | 1538.5 | 46.12
293.15 K, x2 = 0.5033 | 1543.7 | 34.62
293.15 K, x2 = 0.6046 | 1550.4 | 25.02
293.15 K, x2 = 0.7013 | 1561.2 | 17.54
293.15 K, x2 = 0.8073 | 1577.3 | 10.47
293.15 K, x2 = 0.9058 | 1596.6 | 6.546
298.15 K, x2 = 0.1061 | 1521.7 | 74.72
298.15 K, x2 = 0.2004 | 1518.2 | 57.5
298.15 K, x2 = 0.3068 | 1518.3 | 43.1
298.15 K, x2 = 0.4026 | 1519.5 | 32.2
298.15 K, x2 = 0.5033 | 1524.6 | 23.74
298.15 K, x2 = 0.6046 | 1531.3 | 17
298.15 K, x2 = 0.7013 | 1542.5 | 12
298.15 K, x2 = 0.8073 | 1559.5 | 7.526
298.15 K, x2 = 0.9058 | 1580.2 | 5.001
303.15 K, x2 = 0.1061 | 1503.9 | 53.07
303.15 K, x2 = 0.2004 | 1499.8 | 40.31
303.15 K, x2 = 0.3068 | 1499.9 | 28.9
303.15 K, x2 = 0.4026 | 1501.1 | 21.09
303.15 K, x2 = 0.5033 | 1506.5 | 15.04
303.15 K, x2 = 0.6046 | 1513.8 | 10.33
303.15 K, x2 = 0.7013 | 1525.7 | 7.023
303.15 K, x2 = 0.8073 | 1543.8 | 4.543
303.15 K, x2 = 0.9058 | 1566.3 | 3.526
308.15 K, x2 = 0.1061 | 1488.7 | 40.36
308.15 K, x2 = 0.2004 | 1484.2 | 30.96
308.15 K, x2 = 0.3068 | 1483.6 | 21.98
308.15 K, x2 = 0.4026 | 1484.8 | 15.66
308.15 K, x2 = 0.5033 | 1490.1 | 11.25
308.15 K, x2 = 0.6046 | 1497.6 | 7.455
308.15 K, x2 = 0.7013 | 1509.9 | 5.329
308.15 K, x2 = 0.8073 | 1528.7 | 3.578
308.15 K, x2 = 0.9058 | 1552.5 | 2.702
313.15 K, x2 = 0.1061 | 1475.5 | 31.06
313.15 K, x2 = 0.2004 | 1470.2 | 24.23
313.15 K, x2 = 0.3068 | 1468.8 | 17.48
313.15 K, x2 = 0.4026 | 1469.6 | 12.14
313.15 K, x2 = 0.5033 | 1474.7 | 8.414
313.15 K, x2 = 0.6046 | 1482.1 | 6.181
313.15 K, x2 = 0.7013 | 1494.6 | 4.545
313.15 K, x2 = 0.8073 | 1513.9 | 3.229
313.15 K, x2 = 0.9058 | 1538.9 | 2.626
318.15 K, x2 = 0.1061 | 1463.3 | 24.04
318.15 K, x2 = 0.2004 | 1457 | 18.62
318.15 K, x2 = 0.3068 | 1454.8 | 13.82
318.15 K, x2 = 0.4026 | 1455.1 | 9.999
318.15 K, x2 = 0.5033 | 1459.9 | 6.803
318.15 K, x2 = 0.6046 | 1467.1 | 4.697
318.15 K, x2 = 0.7013 | 1479.7 | 3.299
318.15 K, x2 = 0.8073 | 1499.4 | 2.478
318.15 K, x2 = 0.9058 | 1525.5 | 2.257
